Laboratory results as given in patent US6737383B1, “Herbicidal oxadiazolidines” (priority 1999, dated 2004).

Tests used:
bedstraw = assay: Test B pre/postemergence bedstraw; assay type: in vivo, Galium aparine
Outline: (§1)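 Test chemicals in a non-phytotoxic solvent mixture with surfactant were sprayed preemergence onto planted seeds and postemergence onto plants 2 to 18 cm tall (1- to 4-leaf stage). After twelve to sixteen days in a greenhouse, injury was visually rated against untreated controls from 0 (no effect) to 10 (complete control).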

bamyardgrass = assay: Test B flood test barnyardgrass; assay type: in vivo, Echinochloa crus-galli
Outline: (§2)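 Flood test on plants grown to the 2-leaf stage; treated plants kept in greenhouse twelve to sixteen days, then visually rated against controls on a 0 (no effect) to 10 (complete control) scale.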

smallflower flatsedge = assay: Test B flood test smallflower flatsedge; assay type: in vivo, Cyperus difformis
Outline: as §2

duck salad = assay: Test B flood test duck salad; assay type: in vivo, Heteranthera limosa
Outline: as §2

purple nutsedge = assay: Test B pre/postemergence purple nutsedge; assay type: in vivo, Cyperus rotundus
Outline: as §1

rape = assay: Test B pre/postemergence rape; assay type: in vivo, Brassica napus
Outline: as §1

rice = assay: Test B flood test rice; assay type: in vivo, Oryza sativa
Outline: as §2

velvetleaf = assay: Test B pre/postemergence velvetleaf; assay type: in vivo, Abutilon theophrasti
Outline: as §1

giant foxtail = assay: Test B pre/postemergence giant foxtail; assay type: in vivo, Setaria faberii
Outline: as §1

corn = assay: Test B pre/postemergence corn; assay type: in vivo, Zea mays
Outline: as §1

soybean = assay: Test B pre/postemergence soybean; assay type: in vivo, Glycine max
Outline: as §1

blackgrass = assay: Test B pre/postemergence blackgrass; assay type: in vivo, Alopecurus myosuroides
Outline: as §1

surinam grass = assay: Test B pre/postemergence surinam grass; assay type: in vivo, Brachiaria decumbens
Outline: as §1

pigweed = assay: Test B pre/postemergence pigweed; assay type: in vivo, Amaranthus retroflexus
Outline: as §1

sugar beet = assay: Test B pre/postemergence sugar beet; assay type: in vivo, Beta vulgaris
Outline: as §1

morningglory = assay: Test B pre/postemergence morningglory; assay type: in vivo, Ipomoea hederacea
Outline: as §1

[1] = Preemergence, Rate 62 g/ha, scale of 0 to 10 where 0 is no effect and 10 is complete control
[2] = Preemergence, Rate 250 g/ha, scale of 0 to 10 where 0 is no effect and 10 is complete control
[3] = Rate 62 g/ha, Postemergence, scale 0 to 10 (0 no effect, 10 complete control)
[4] = Rate 125 g/ha, Postemergence, scale of 0 to 10 where 0 is no effect and 10 is complete control
[5] = Rate 62 g/ha, headed Pre-emergence (flood test species), scale 0 to 10 (0 no effect, 10 complete control)
[6] = Rate 125 g/ha, Pre-emergence, flood test species, scale 0 to 10 where 0 is no effect and 10 is complete control
[7] = Rate 250 g/ha, Pre-emergence, flood-test species, scale 0 to 10, 0 is no effect, 10 is complete control
[8] = Rate 500 g/ha, Pre-emergence, flood test species, scale 0 to 10 (0 no effect, 10 complete control)
[9] = Preemergence, Rate 500 g/ha, scale of 0 to 10 where 0 is no effect and 10 is complete control
[10] = Rate 250 g/ha, Postemergence, scale of 0 to 10 where 0 is no effect and 10 is complete control
[11] = Rate 500 g/ha, Postemergence, scale 0 to 10, 0 no effect, 10 complete control

## CC(C)N(C(=O)n1oc(=O)n(CCCN(C)C)c1=O)c1ccc(F)cc1 [Compound 323]
bedstraw; [1]
  Bedstraw plant response rating: 0
bedstraw; Preemergence, Rate 125 g/ha
  Bedstraw plant response rating (0 to 10 scale): 0
bedstraw; [2]
  Bedstraw plant response rating: 0
bedstraw; [3]
  Bedstraw plant response rating: 0
bedstraw; [4]
  Bedstraw plant response rating: 0
bamyardgrass; [5]
  Barnyardgrass plant response rating: 0
bamyardgrass; [6]
  Barnyardgrass plant response rating: 0
bamyardgrass; [7]
  Barnyardgrass plant response rating: 0
bamyardgrass; [8]
  Barnyardgrass plant response rating: 0
Smallflower flatsedge; [5]
  S. Flatsedge plant response rating: 0
Smallflower flatsedge; [6]
  S. Flatsedge plant response rating: 0
Smallflower flatsedge; [7]
  S. Flatsedge plant response rating: 0
Smallflower flatsedge; [8]
  S. Flatsedge plant response rating: 0
Duck salad; [5]
  Ducksalad plant response rating: 0
Duck salad; [6]
  Ducksalad plant response rating: 0
Duck salad; [7]
  Ducksalad plant response rating: 0
Duck salad; [8]
  Ducksalad plant response rating: 0
Purple nutsedge; [1]
  Nutsedge plant response rating: 0
Purple nutsedge; Preemergence, Rate 125 g/ha
  Nutsedge plant response rating (0 to 10 scale): 0
Purple nutsedge; [9]
  Nutsedge plant response rating: 0
Purple nutsedge; [3]
  Nutsedge plant response rating: 0
Purple nutsedge; [4]
  Nutsedge plant response rating: 0
Purple nutsedge; [10]
  Plant response rating, Nutsedge: 0
Purple nutsedge; [11]
  Plant response rating, Nutsedge: 0
rape; [1]
  Rape plant response rating: 0
rape; Preemergence, Rate 125 g/ha
  Rape plant response rating (0 to 10 scale): 0
rape; [2]
  Rape plant response rating: 0
rape; [9]
  Rape plant response rating: 0
rape; [3]
  Rape plant response rating: 0
rape; [4]
  Rape plant response rating: 0
rape; [10]
  Plant response rating, Rape: 0
rape; [11]
  Plant response rating, Rape: 0
rice; [5]
  Rice plant response rating: 0
rice; [6]
  Rice plant response rating: 0
rice; [7]
  Rice plant response rating: 0
rice; [8]
  Rice plant response rating: 0
velvetleaf; [1]
  Velvetleaf plant response rating: 0
velvetleaf; Preemergence, Rate 125 g/ha
  Velvetleaf plant response rating (0 to 10 scale): 0
velvetleaf; [2]
  Velvetleaf plant response rating: 0
velvetleaf; [9]
  Velvetleaf plant response rating: 0
velvetleaf; [3]
  Velvetleaf plant response rating: 0
velvetleaf; [4]
  Velvetleaf plant response rating: 0
velvetleaf; [10]
  Plant response rating, Velvetleaf: 0
velvetleaf; [11]
  Plant response rating, Velvetleaf: 0
Giant foxtail; [1]
  Giant foxtail plant response rating: 0
Giant foxtail; Preemergence, Rate 125 g/ha
  Giant foxtail plant response rating (0 to 10 scale): 0
Giant foxtail; [2]
  Giant foxtail plant response rating: 0
Giant foxtail; [9]
  Giant foxtail plant response rating: 2
Giant foxtail; [3]
  Giant foxtail plant response rating: 0
Giant foxtail; [4]
  Giant foxtail plant response rating: 0
Giant foxtail; [10]
  Plant response rating, Giant foxtail: 0
Giant foxtail; [11]
  Plant response rating, Giant foxtail: 0
corn; [1]
  Corn plant response rating: 0
corn; Preemergence, Rate 125 g/ha
  Corn plant response rating (0 to 10 scale): 0
corn; [2]
  Corn plant response rating: 0
corn; [9]
  Corn plant response rating: 0
corn; [3]
  Corn plant response rating: 0
corn; [4]
  Corn plant response rating: 0
corn; [10]
  Plant response rating, Corn: 0
corn; [11]
  Plant response rating, Corn: 0
soybean; [1]
  Soybean plant response rating: 0
soybean; Preemergence, Rate 125 g/ha
  Soybean plant response rating (0 to 10 scale): 0
soybean; [2]
  Soybean plant response rating: 0
soybean; [9]
  Soybean plant response rating: 0
soybean; [3]
  Soybean plant response rating: 0
soybean; [4]
  Soybean plant response rating: 1
soybean; [10]
  Plant response rating, Soybean: 2
soybean; [11]
  Plant response rating, Soybean: 2
blackgrass; [1]
  Blackgrass plant response rating: 0
blackgrass; Preemergence, Rate 125 g/ha
  Blackgrass plant response rating (0 to 10 scale): 0
blackgrass; [2]
  Blackgrass plant response rating: 0
blackgrass; [9]
  Blackgrass plant response rating: 0
blackgrass; [3]
  Blackgrass plant response rating: 0
blackgrass; [4]
  Blackgrass plant response rating: 0
blackgrass; [10]
  Plant response rating, Blackgrass: 0
blackgrass; [11]
  Plant response rating, Blackgrass: 0
Surinam grass; [1]
  B. signalgrass plant response rating: 0
Surinam grass; Preemergence, Rate 125 g/ha
  B. signalgrass plant response rating (0 to 10 scale, 0 is no effect, 10 is complete control): 0
Surinam grass; [2]
  B. signalgrass plant response rating: 0
Surinam grass; [9]
  B. signalgrass plant response rating: 0
Surinam grass; [3]
  B. signalgrass plant response rating: 0
Surinam grass; [4]
  B. signalgrass plant response rating: 0
Surinam grass; [10]
  Plant response rating, B. signalgrass: 0
Surinam grass; [11]
  Plant response rating, B. signalgrass: 0
pigweed; [1]
  Redroot pigweed plant response rating: 0
pigweed; Preemergence, Rate 125 g/ha
  Redroot pigweed plant response rating (0 to 10 scale): 0
pigweed; [2]
  Redroot pigweed plant response rating: 0
pigweed; [9]
  Redroot pigweed plant response rating: 0
pigweed; [3]
  Redroot pigweed plant response rating: 0
pigweed; [4]
  Redroot pigweed plant response rating: 0
pigweed; [10]
  Plant response rating, Redroot pigweed: 0
pigweed; [11]
  Plant response rating, Redroot pigweed: 0
Sugar beet; [1]
  Sugarbeets plant response rating: 0
Sugar beet; Preemergence, Rate 125 g/ha
  Sugarbeets plant response rating (0 to 10 scale): 0
Sugar beet; [2]
  Sugarbeets plant response rating: 0
Sugar beet; [9]
  Sugarbeets plant response rating: 0
Sugar beet; [3]
  Sugarbeets plant response rating: 0
Sugar beet; [4]
  Sugarbeets plant response rating: 0
Sugar beet; [10]
  Plant response rating, Sugarbeets: 0
Sugar beet; [11]
  Plant response rating, Sugarbeets: 0
morningglory; [1]
  Morningglory plant response rating: 0
morningglory; Preemergence, Rate 125 g/ha
  Morningglory plant response rating (0 to 10 scale): 0
morningglory; [2]
  Morningglory plant response rating: 0
morningglory; [9]
  Morningglory plant response rating: 0
morningglory; [3]
  Morningglory plant response rating: 0
morningglory; [4]
  Morningglory plant response rating: 0
morningglory; [10]
  Plant response rating, Morningglory: 2
morningglory; [11]
  Plant response rating, Morningglory: 3
